Data set [1] deals with zQ175 knock-in mice (cortex, hippocampus, striatum, cerebellum). The experiment in a line: In vivo PET imaging in a knock-in model of Huntington's disease. Conditions: for % SUV: Mean ± SD. Further details: species or system mouse. On the procedure: ^11C-labeled Compound 1 of Method 1 was evaluated for its ability to penetrate the central nervous system of mice following systemic administration, and its binding to the cerebellum, striatum, hippocampus, and cortex was quantitated. Three groups of animals were compared: wild-type, and mice that were heterozygous or homozygous for the zQ175 knock-in allele. (Menalled L. B. et al. Comprehensive behavioral and molecular characterization of a new knock-in mouse model of Huntington's disease: zQ175. PloS One 2012, 7, e49838). Forty-eight nine months old animals (16 WT, 16 heterozygous and 16 homozygous zQ175) were obtained from The Jackson Laboratory, USA. The animals were housed at the animal department of Karolinska University Hospital in a temperature (±21° C.) and humidity (±40%) controlled environment on a 12 hour light/dark cycle (lights on 7:00 AM) with access to food and water ad libitum. Animals were allowed at least one week to habituate to the animal department before the start of the imaging sessions. All experiments were conducted during the light phase of the cycle.
Animals were anesthetized with inhalation of isoflurane (4-5% isoflurane in oxygen). After induction of anesthesia, the isoflurane concentration was lowered to 1.5-2% in 50/50 air/oxygen and the animals were positioned in the scanner in a designated mouse bed. A cannula was inserted in the tail vein through which the radioligand was administered. A 63-minute dynamic PET scan was initiated immediately upon intravenous injection of the radioligand. Upon completion of the imaging sessions, each animal was returned to its cage.
The acquired list mode data, was reconstructed into 25 timeframes (63 minute scan=4×10 s, 4×20 s, 4×60 s, 7×180 s, 6×360 s). The image reconstruction was made with a fully 3-dimensional maximum-likelihood expectation maximization algorithm (MLEM) with 20 iterations, without scatter and attenuation correction. The reconstructed dynamic PET images were co-registered to an inbuilt mouse MRI template available in PMOD, which also incorporates volumes of interest (VOI's) sets (PMOD Technologies Ltd., Zurich, Switzerland). With the help of these VOI sets, decay corrected time activity curves (TAC) were generated. The regional brain uptake values were expressed as percent standard uptake value (% SUV), which normalizes for injected radioactivity and body weight. In addition, the area under the curve (AUC) was calculated. The selected regions of interest (ROI) were: cortex, hippocampus, striatum and cerebellum.
The average % SUV and AUC values for the ^11C-labeled Compound 1 of Method 1 in the four brain regions, for the three groups of mice, are shown in Table 23. […] FIG. 3 presents the AUC values for the three groups of animals in the four regions of the brain.

Data set [2] has as its system recombinant tau and amyloid β1-42 (Aβ1-42) aggregates. To be noted: recombinant tau and Aβ1-42 aggregates; cited from earlier work.
Data set [3] has as its system NFT in sections of AD brain tissue. To be noted: in vitro autoradiography and fluorescent staining; cited from earlier work.
A further data set has as its system mHTT aggregates. Put plainly: Autoradiography of mHTT aggregates in R6/2 mouse brain. It is filed as binding. Conditions: 0.5 nM, 10 week old R6/2 mouse brain, compared with wild-type littermate.
The next data set deals with T1, Q46 protein aggregates (Homo sapiens, UniProt P42858).
T1 construct: fused on or other part: An N-terminal GST tag, cleaved off with thrombin before the assay to trigger aggregation
T1 sequence (P42858 with tags, fused parts or gaps with the stated changes, form open): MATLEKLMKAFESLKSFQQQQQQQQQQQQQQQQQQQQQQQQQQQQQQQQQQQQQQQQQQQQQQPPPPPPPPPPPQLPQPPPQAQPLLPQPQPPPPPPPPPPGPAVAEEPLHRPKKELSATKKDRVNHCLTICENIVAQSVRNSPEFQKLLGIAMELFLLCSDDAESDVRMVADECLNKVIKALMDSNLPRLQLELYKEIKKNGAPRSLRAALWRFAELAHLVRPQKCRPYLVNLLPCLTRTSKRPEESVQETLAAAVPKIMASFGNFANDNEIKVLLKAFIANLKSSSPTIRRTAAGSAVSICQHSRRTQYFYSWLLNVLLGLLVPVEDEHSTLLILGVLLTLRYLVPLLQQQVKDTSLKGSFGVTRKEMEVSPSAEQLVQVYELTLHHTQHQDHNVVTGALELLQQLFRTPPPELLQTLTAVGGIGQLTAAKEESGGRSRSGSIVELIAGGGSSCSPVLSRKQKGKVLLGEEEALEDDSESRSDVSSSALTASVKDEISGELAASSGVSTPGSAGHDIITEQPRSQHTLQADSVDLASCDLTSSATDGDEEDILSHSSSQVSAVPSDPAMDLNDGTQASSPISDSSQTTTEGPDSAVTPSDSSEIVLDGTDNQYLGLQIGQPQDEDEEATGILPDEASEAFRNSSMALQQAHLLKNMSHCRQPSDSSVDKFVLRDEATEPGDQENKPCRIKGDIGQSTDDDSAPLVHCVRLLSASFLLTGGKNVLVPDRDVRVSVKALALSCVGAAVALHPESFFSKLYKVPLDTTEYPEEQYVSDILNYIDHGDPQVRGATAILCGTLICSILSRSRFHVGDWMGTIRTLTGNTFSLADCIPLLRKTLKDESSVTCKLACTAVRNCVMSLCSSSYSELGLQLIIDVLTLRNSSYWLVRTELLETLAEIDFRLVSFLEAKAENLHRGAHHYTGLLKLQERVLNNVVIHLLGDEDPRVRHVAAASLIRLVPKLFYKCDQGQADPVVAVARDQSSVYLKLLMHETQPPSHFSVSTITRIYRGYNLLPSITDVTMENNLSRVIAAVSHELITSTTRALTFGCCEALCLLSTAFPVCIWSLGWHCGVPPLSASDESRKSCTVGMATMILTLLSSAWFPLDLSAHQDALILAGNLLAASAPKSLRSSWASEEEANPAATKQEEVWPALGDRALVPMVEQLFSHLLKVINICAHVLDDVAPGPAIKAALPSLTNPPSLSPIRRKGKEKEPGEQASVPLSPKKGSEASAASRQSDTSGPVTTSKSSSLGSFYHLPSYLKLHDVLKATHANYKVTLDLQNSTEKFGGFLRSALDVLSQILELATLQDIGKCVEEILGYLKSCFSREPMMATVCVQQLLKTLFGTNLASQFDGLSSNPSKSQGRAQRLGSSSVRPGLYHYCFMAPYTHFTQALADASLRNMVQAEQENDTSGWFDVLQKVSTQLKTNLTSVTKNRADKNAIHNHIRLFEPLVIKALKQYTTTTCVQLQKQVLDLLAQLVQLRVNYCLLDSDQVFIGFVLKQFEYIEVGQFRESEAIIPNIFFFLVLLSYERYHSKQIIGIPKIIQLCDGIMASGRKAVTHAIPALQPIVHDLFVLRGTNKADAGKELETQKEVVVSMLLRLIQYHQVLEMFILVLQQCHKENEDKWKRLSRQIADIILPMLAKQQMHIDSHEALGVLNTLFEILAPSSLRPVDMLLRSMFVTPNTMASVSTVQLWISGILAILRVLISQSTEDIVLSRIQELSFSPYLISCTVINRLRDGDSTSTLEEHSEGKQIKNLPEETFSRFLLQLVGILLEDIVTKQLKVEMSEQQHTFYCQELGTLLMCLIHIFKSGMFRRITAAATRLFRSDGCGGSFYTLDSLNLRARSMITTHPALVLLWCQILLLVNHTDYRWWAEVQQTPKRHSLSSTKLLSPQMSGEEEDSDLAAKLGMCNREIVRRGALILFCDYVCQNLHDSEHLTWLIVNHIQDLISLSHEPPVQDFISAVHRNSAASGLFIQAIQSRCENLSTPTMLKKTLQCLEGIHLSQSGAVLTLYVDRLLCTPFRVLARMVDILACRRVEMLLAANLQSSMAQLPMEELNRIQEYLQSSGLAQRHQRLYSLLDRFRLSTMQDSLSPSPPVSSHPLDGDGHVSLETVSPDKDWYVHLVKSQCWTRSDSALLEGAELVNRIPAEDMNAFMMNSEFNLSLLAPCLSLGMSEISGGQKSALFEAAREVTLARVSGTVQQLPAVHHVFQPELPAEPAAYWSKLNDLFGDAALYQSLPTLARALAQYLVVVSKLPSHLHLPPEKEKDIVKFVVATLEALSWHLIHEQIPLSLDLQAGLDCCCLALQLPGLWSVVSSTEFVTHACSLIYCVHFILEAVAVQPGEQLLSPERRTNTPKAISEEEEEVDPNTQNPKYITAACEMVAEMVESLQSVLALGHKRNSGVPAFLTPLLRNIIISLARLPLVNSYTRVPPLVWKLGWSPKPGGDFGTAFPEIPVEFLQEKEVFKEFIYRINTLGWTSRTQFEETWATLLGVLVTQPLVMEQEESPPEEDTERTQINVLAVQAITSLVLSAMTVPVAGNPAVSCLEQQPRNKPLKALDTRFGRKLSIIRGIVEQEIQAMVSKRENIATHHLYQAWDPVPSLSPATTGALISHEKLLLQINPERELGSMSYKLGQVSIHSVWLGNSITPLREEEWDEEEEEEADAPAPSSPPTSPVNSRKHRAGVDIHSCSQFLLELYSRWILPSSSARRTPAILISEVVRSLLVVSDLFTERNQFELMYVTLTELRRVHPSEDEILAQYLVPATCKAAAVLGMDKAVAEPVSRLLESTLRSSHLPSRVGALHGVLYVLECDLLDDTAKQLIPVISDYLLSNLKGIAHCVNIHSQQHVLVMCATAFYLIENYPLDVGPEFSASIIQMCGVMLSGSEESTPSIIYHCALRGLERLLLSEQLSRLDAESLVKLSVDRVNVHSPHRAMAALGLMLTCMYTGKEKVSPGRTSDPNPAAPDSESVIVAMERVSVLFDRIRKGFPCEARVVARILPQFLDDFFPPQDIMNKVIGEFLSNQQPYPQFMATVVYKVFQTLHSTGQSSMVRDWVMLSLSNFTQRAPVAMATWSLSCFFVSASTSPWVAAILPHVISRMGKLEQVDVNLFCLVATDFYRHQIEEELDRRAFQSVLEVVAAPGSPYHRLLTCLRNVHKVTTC
The experiment in a line: Q46 Radioligand Binding Assay (RBA), displacement of [^3H3]MK-3328. To be noted: 10 nM [^3H3]MK-3328, 5 μM Q46 protein aggregates. Here is the method: For radioligand binding assays (RBA) GST-Q46 protein was generated based on a previous publication (Scherzinger et al. Cell, Vol. 90, 549-558, Aug. 8, 1997). For experiments 33 μM GST-Q46 was incubated with 150 μg/mL thrombin in assay buffer (150 mM NaCl, 50 mM Tris pH 8.0) and 2 mM CaCl2 for 16 hours at 37° C. Aggregated Q46 was pelleted by centrifugation for 5 minutes at 13,000 rpm in a bench top centrifuge and re-dissolved in the same volume of assay buffer. Test compounds were prepared by titration in DMSO at 11 concentrations from 33 μM to 1 nM. For the RBA, Q46 protein aggregates and test compounds were pre-incubated in assay buffer for 20 minutes at room temperature, in 140 μL/well in a 96-well plate (pp, round bottom). Then, ligand was added in 10 μL/well and incubated for 60 minutes at 37° C. Final assay concentrations were 1 μM to 30 pM test compound, 5 μM Q46 protein (equivalent monomer concentration) and 10 nM ligand [^3H3]MK-3328 (Harrision et al., ACS Med. Chem. Lett., 2 (2011), pp 498-502). Samples were transferred onto GF/B filter plates and washed 2× with 200 μL PBS using a Filtermate Harvester. After drying filter plates for 1 hour at 37° C., the back of the plates was sealed with foil and 30 μl/well scintillation fluid (Packard MicroScint 40) was added, incubated for incubated for 15 minutes in the dark and counted in a TopCount reader. For analysis, replicate data from independent assay plates were normalized towards 0% and 100% inhibition using control wells of vehicle (0% inhibition) and 3 μM unlabelled MK-3328 (100% inhibition). IC50 values were determined with a sigmoidal inhibition model with four variables (top, bottom, slope, IC50) in a global fit using the normalized replicate data.

Another data set deals with T2, Aβ aggregates (Homo sapiens, UniProt P05067).
T2 construct: from tissue; host or cells: brain sections of 12 month old heterozygous APP/PS1 mice
T2 sequence (P05067 672-713 limits assumed): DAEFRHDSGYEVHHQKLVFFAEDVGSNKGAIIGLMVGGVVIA
Put plainly: Autoradiography binding to Aβ aggregates in APP/PS1 mouse brain sections. Conditions: 1 nM radioligand, 12-month old heterozygous APP/PS1 mouse brain, compared with wild-type littermate. An excerpt:
Generation of tritiated compound 1, Method 1, for autoradiography studies was achieved by treating phenolic Compound 2 of Method 2 with tritiated methyl nosylate and a suitable base in N,N-dimethylformamide Purification by HPLC gave the tritiated compound in high radiochemical purity.
Brains were extracted from 12 month old heterozygous APP/PS1 animals (J. Neurochemistry 2009, 108, 1177-1186) and quickly frozen on dry ice in small weigh boats, wrapped with tin foil and stored in zip-lock bags at −80° C. for sectioning. Using a Leica CM3050S cryostat, 20 μm thick sections were generated representing the hippocampus (Bregma −1.34/−3.80) and the cortex/striatum (Bregma 1.54/−0.94). […]
10-[^3H]-methoxy-N-(pyridin-3-yl)-7-thia-2,5-diazatricyclo[6.4.0.0^2,6]dodeca-1(12),3,5,8,10-pentaene-4-carboxamide binding was determined in brain sections of a 12 month old APP/PS1 mouse and a WT littermate. […] Non-specific binding was determined for each radioligand in the presence of 1 μM of respective, cold ligand equivalent. […]
Quantification and Analysis: Signal intensity (cpm/mm^2) was measured for each brain section using Beta Vision+software. Specific (displaceable) binding, expressed in cpm/mm^2, was defined by the difference between total and non-specific binding and calculated as follows: (Total non-specific)/Total×100%. […]

Some results are limits rather than exact numbers.

Here are results for 10 molecules from patent publication US10765764B2, “Probes for imaging huntingtin protein” (CHDI Foundation, Inc., priority 2015, dated 2020).

On to `[11CH3]Oc1ccc2c(c1)sc1nc(C(=O)Nc3cccnc3)cn12` [^11C-labeled Compound 1 of Method 1, 10-[^11C]-methoxy-N-(pyridin-3-yl)-7-thia-2,5-diazatricyclo[6.4.0.0^2,6]dodeca-1(12),3,5,8,10-pentaene-4-carboxamide], for which the “% SUV” value is reported as 74.1 ± 7.1 % SUV in data set [1] (Cerebellum, WT mice (n = 7)); 80.5 ± 6.5 % SUV in data set [1] (Cerebellum, het zQ175 mice (n = 6)); 92.3 ± 11.3 % SUV in data set [1] (Cerebellum, hom zQ175 mice (n = 8)); 67.1 ± 5.7 % SUV in data set [1] (Cortex, WT mice (n = 7)); 73.4 ± 5.1 % SUV in data set [1] (Cortex, het zQ175 mice (n = 6)); 93.1 ± 9.6 % SUV in data set [1] (Cortex, hom zQ175 mice (n = 8)). The “% SUV” value in data set [1] (Hippocampus, WT mice (n = 7)) is listed as 73.3 ± 6.5 % SUV; in data set [1] (Hippocampus, het zQ175 mice (n = 6)) it was 82.0 ± 6.3 % SUV; in data set [1] (Hippocampus, hom zQ175 mice (n = 8)), 107.1 ± 10.8 % SUV; in data set [1] (Striatum, WT mice (n = 7)), 71.9 ± 6.7 % SUV; in data set [1] (Striatum, het zQ175 mice (n = 6)) it was 82.7 ± 7.0 % SUV; in data set [1] (Striatum, hom zQ175 mice (n = 8)) it was 107.6 ± 9.6 % SUV. Moreover, the “binding of the radioligand relative to wild type” value in data set [1] (all four brain regions, mice homozygous for the zQ175 allele) is recorded as “Increased binding of the radioligand, relative to wild type”.
For the molecule `CN(C)c1ccc(/C=C/c2nc3ccc(I)cc3[nH]2)cc1` [SBIM-3, 4-[(E)-2-(6-iodo-1H-benzimidazol-2-yl)ethenyl]-N,N-dimethylaniline], the “ratio of Kd values (affinity for tau aggregates vs Aβ1-42 aggregates)” value in data set [2] is 2.73. Also, the “binding to NFT in sections of AD brain tissue” value in data set [3] is “bound NFT”.
On to `COc1ccc2c(c1)sc1nc(C(=O)Nc3ccc(=O)n(C)n3)cn12` [10-methoxy-N-(1-methyl-6-oxo-1,6-dihydropyridazin-3-yl)-7-thia-2,5-diazatricyclo[6.4.0.0^2,6]dodeca-1(12),3,5,8,10-pentaene-4-carboxamide], for which the “visibility of mHTT aggregates in brain sections” value in the data set on mHTT aggregates is reported as “mHTT aggregates are visible”. For the same molecule, on Q46 protein aggregates, the IC50 – broadly, the point on the concentration scale where inhibition reaches its midpoint – was less than 100 nM.
Regarding `[3H]C([3H])([3H])Oc1ccc2c(c1)sc1nc(C(=O)Nc3cccnc3)cn12` [10-[^3H]-methoxy-N-(pyridin-3-yl)-7-thia-2,5-diazatricyclo[6.4.0.0^2,6]dodeca-1(12),3,5,8,10-pentaene-4-carboxamide], the “visibility of Aβ aggregates in brain sections” value on Aβ aggregates is “Aβ aggregates are visible”.
Consider `COc1ccc(NC(=O)c2cn3c(n2)sc2cc(O)ccc23)cn1` [10-hydroxy-N-(6-methoxypyridin-3-yl)-7-thia-2,5-diazatricyclo[6.4.0.0^2,6]dodeca-1(12),3,5,8,10-pentaene-4-carboxamide], for which the IC50 at Q46 protein aggregates was less than 100 nM.
On the same count and under the same terms, to `COc1cncc(NC(=O)c2cn3c(n2)sc2ncc(OC)cc23)c1` [11-methoxy-N-(5-methoxypyridin-3-yl)-7-thia-2,5,9-triazatricyclo[6.4.0.0^2,6]dodeca-1(12),3,5,8,10-pentaene-4-carboxamide] belongs less than 100 nM; to `COc1ccc(COc2ccc3c(c2)sc2nc(C(=O)Nc4cncc(OC)c4)cn23)nc1` [10-[(5-methoxypyridin-2-yl)methoxy]-N-(5-methoxypyridin-3-yl)-7-thia-2,5-diazatricyclo[6.4.0.0^2,6]dodeca-1(12),3,5,8,10-pentaene-4-carboxamide], less than 100 nM; to `COc1cncc(NC(=O)c2cn3c(n2)sc2ncc(Br)cc23)c1` [11-bromo-N-(5-methoxypyridin-3-yl)-7-thia-2,5,9-triazatricyclo[6.4.0.0^2,6]dodeca-1(12),3,5,8,10-pentaene-4-carboxamide], less than 100 nM.
Same read-out and setting: the result for `COc1cncc(NC(=O)c2ccn3c(n2)nc2cc(-c4cncc(OC)c4)ccc23)c1` [N,5-bis(5-methoxypyridin-3-yl)-1,8,10-triazatricyclo[7.4.0.0^2,7]trideca-2(7),3,5,8,10,12-hexaene-11-carboxamide] reads less than 100 nM; that for `COc1ccc2c(c1)sc1nc(C(=O)Nc3ccc(-c4cccnc4)cn3)cn12` [10-methoxy-N-[5-(pyridin-3-yl)pyridin-2-yl]-7-thia-2,5-diazatricyclo[6.4.0.0^2,6]dodeca-1(12),3,5,8,10-pentaene-4-carboxamide], less than 100 nM.
